Read-outs that look alike come from different tables or passages of the source.
Key:
[1] = test system: maximal electroshock (MES)-induced seizures; experiment: Maximal electroshock seizure (MES) test, mice (ip); type: in vivo; details: mice, ip
Procedure: (§2) The maximal electroconvulsive shock (MES) test is regarded as a standard screen for anticonvulsant activity in terms of inhibition of seizure spread in generalized tonic-clonic seizures.
(§3) Groups of at least 8 male albino CF No. 1 mice or male albino Sprague-Dawley rats are treated with 10 mL/kg i.p. or 4 mL/kg p.o. of the test compound solution, respectively. The electrical stimulus in the MES test is 50 mA at 60 Hz for mice and 150 mA at 60 Hz for rats, both delivered for 0.2 sec. Abolition of the hind leg tonic extensor component of the seizure is used as the endpoint.

[2] = test system: mechanical allodynia after partial sciatic nerve ligation; experiment: Partial sciatic nerve ligation model, rats (ip); type: in vivo; details: dose 12, p < 0.05
[3] = test system: hippocampal kindled seizures; experiment: Hippocampal kindling test, rats; type: in vivo; details: for Preliminary Hippocampal Kindling Test, After discharge duration, Drug / Preliminary Hippocampal Kindling Test, Seizure Score, Drug: rats; for Preliminary Hippocampal Kindling Test, Seizure Score, Drug: after drug (pre-drug score 4-5)
Procedure: The kindling model provides a tool to predict a test compound's activity in complex partial seizures.
Male albino Sprague-Dawley rats (n=8) are kindled to a Stage 5 behavioral seizure. They are treated with an appropriate i.p. dose of the test compound after a 1-week, stimulus-free period. The test compound is evaluated for its effect on kindled motor seizures (seizures scores of 4 and 5), limbic behavior seizures (seizure scores between 1 and 3) and after-discharge duration. After 15 min, each rat is stimulated every 30 min for 3-4 h. Following each stimulation, individual seizure scores and after-discharge duration are recorded. The group mean and standard error of the mean (SEM) are calculated for each parameter.

[4] = test system: maximal electroshock (MES)-induced seizures; experiment: Maximal electroshock seizure (MES) test, rat (po); type: in vivo; details: for MES, ED50: rat, time (h) in brackets, Table 2
Procedure: as §2, §3

6 Hz seizures = experiment: 6 Hz seizure model, mice (ip); type: in vivo; details: mice, ip
[5] = test system: neurologic toxicity (rotorod test); experiment: Neurologic toxicity, rotorod test, mice (ip); type: in vivo; details: rotorod test
Procedure: (§1) Tests are conducted in groups of at least 8 mice or rats to determine the intrinsic neurotoxicity (neuromuscular impairment) after administration of the test compound by the route of administration to be used in the pharmacology studies. Neurotoxicity is determined in male CF No 1 mice by the rotarod procedure. Inability of the mouse to maintain its equilibrium in 3 trials during 1 min on this rotating rod (6 rpm) is used as an indication of such impairment. In Sprague-Dawley rats, minimal motor impairment (MMI) is determined by overt evidence of ataxia, abnormal gait, and stance.

behavioral toxicity [6] = experiment: Toxicity (behavioral toxicity), rat (po); type: in vivo
Procedure: as §1

behavioral toxicity [7] = details: rat, po; Table 3, Ref 16, 32; cited from earlier work
[8] = test system: maximal electroshock (MES)-induced seizures; details: mice, ip; Table 3, Ref 30, 16, 32; cited from earlier work
[9] = test system: maximal electroshock (MES)-induced seizures; details: rat, po; Table 3, Ref 16, 32; cited from earlier work
[10] = test system: neurologic toxicity (rotorod test); details: mice, ip, Table 3, Ref 30, 16, 32; cited from earlier work
[11] = time (h) in brackets, (X′—Y′—Z′ group)
[12] = behavioral toxicity, Table b607
[13] = time (h) in brackets, Table 2, footnotes not given

COC[C@@H](NC(C)=O)C(=O)NCc1ccc(OCc2cccc(F)c2)cc1 [(R)-3, (R)-2-Acetamido-N-(4-(3-fluorobenzyloxy)benzyl)-3-methoxypropanamide]
ED50 ([1]; Mus musculus, time (h) in brackets, Table 2, footnotes not given): 13 mg/kg | fold attentaution of mechanical allodynia at 1 h [2]: 11.2 fold attentaution of mechanical | ED50 ([3]; Rattus norvegicus, ip, read-out: Hippocampal Kindled Rats (ip) ED50 (inteval)): 12 mg/kg | Preliminary Hippocampal Kindling Test, After discharge duration, Drug [3]: 0 s | Preliminary Hippocampal Kindling Test, Seizure Score, Drug [3]: 0

COC[C@@H](NC(C)=O)C(=O)NCc1ccc(OCc2cccc(F)c2)cc1 [(R)-10, (R)-2-Acetamido-N-(4-(3-fluorobenzyloxy)benzyl)-3-methoxypropanamide]
MES, ED50 [1, 11]: 13 [0.25] milligrams per kilogram | MES, ED50 ([1]; time (h) in brackets, (terminal ring group)): 13 [0.25] milligrams per kilogram | MES, ED50 ([1]; time (h) in brackets, Table 3, NINDS ASP): 13 [0.25] milligrams per kilogram | MES, ED50 [4]: 4.9 [1] | 6 Hz, ED50 (6 Hz seizures; Table 3): ~10 [0.25] milligrams per kilogram | 6 Hz, ED50 (6 Hz seizures; Table b607): ~10 [0.25] milligrams per kilogram | 6 Hz, ED50 (6 Hz seizures; Table b608): ~10 [0.25] milligrams per kilogram | Tox, TD50 ([5]; Table 3): 26 [0.5] milligrams per kilogram | Tox, TD50 ([5]; Table b607): 26 [0.5] milligrams per kilogram | Tox, TD50 ([5]; Table b608): 26 [0.5] milligrams per kilogram | Tox, TD50 (behavioral toxicity [6]; behavioral toxicity, Table 3): >500 [0.5] milligrams per kilogram | Tox, TD50 (behavioral toxicity [6]; [12]): >500 [0.5] milligrams per kilogram | Tox, TD50 (behavioral toxicity [6]; behavioral toxicity, Table b608): >500 [0.5] milligrams per kilogram | Tox, TD50 (behavioral toxicity [6]; time (h) in brackets, Table 2): > 280 mg/kg

CCC1(c2ccccc2)C(=O)NC(=O)NC1=O [Phenobarbital, reference compound]
MES, ED50 [1, 13]: 22 [1] | Tox, TD50 (behavioral toxicity [7]): 61 [0.5] milligrams per kilogram

CC(=O)N[C@@H](C)C(=O)NCc1ccccc1 [(S)-4, reference compound]
MES, ED50 ([1]; 95% confidence intervals in parentheses, Table 1): 550 (460-740) mg/kg | MES, ED50 [8]: 8.0 milligrams per kilogram

COC[C@@H](NC(C)=O)C(=O)NCc1ccc(Oc2cccc(F)c2)cc1 [(R)-12, (R)—N-4′-((3″-Fluoro)phenoxy)benzyl 2-N-Acetamido-3-methoxypropionamide]
MES, ED50 [1, 11]: 5.5 [0.25] (3.2-6.3) milligrams per kilogram | ED50 ([4]; Rattus norvegicus, read-out: MES, ED50, rat, po): < 10 mg/kg | 6 Hz, ED50 (6 Hz seizures; Table b607): ~10 [0.5] milligrams per kilogram | Tox, TD50 ([5]; Table b607): 23 [0.25] (18-28) milligrams per kilogram | Tox, TD50 (behavioral toxicity [6]; [12]): >10 [0.25-4.0] milligrams per kilogram

CCCC(CCC)C(=O)O [valproate]
MES, ED50 [1, 13]: 270 [0.25] | MES, ED50 [4]: 490 [0.5] | MES, ED50 [8]: 270 [0.25] milligrams per kilogram | MES, ED50 [9]: 490 [0.5] milligrams per kilogram

O=C1NC(=O)C(c2ccccc2)(c2ccccc2)N1 [phenytoin, reference compound]
MES, ED50 [4]: 30 [4] | Tox, TD50 (behavioral toxicity [6]; time (h) in brackets, Table 2): ^hNo ataxia observed up to 3000 mg/kg. | Preliminary Hippocampal Kindling Test, After discharge duration, Drug [3]: 51 s | Preliminary Hippocampal Kindling Test, Seizure Score, Drug [3]: 3 | MES, ED50 [9]: 30 [4.0] milligrams per kilogram | Tox, TD50 [10]: 66 [2.0] milligrams per kilogram
